Results taken from PubChem BioAssay (NCI).
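Following 48 hours of exposure in 96-well plates, responses at five concentrations were used to interpolate endpoints linearly. GI50 marks 50% less growth. TGI is the concentration that stops growth completely.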

Experiments:
Assay in all cases: growth of human tumour cells (NCI), 48 h
786-0 renal = system: 786-0 renal
A498 renal = system: A498 renal
A549 NSCLC = system: A549 NSCLC
ACHN renal = system: ACHN renal
BT-549 breast = system: BT-549 breast
CAKI-1 renal = system: CAKI-1 renal
CCRF-CEM leukemia = system: CCRF-CEM leukemia
COLO 205 colon = system: COLO 205 colon
DU-145 prostate = system: DU-145 prostate
EKVX NSCLC = system: EKVX NSCLC
HCC-2998 colon = system: HCC-2998 colon
HCT-116 colon = system: HCT-116 colon
HCT-15 colon = system: HCT-15 colon
HL-60(TB) leukemia = system: HL-60(TB) leukemia
HOP-62 NSCLC = system: HOP-62 NSCLC
HOP-92 NSCLC = system: HOP-92 NSCLC
HS 578T breast = system: HS 578T breast
HT29 colon = system: HT29 colon
IGROV1 ovarian = system: IGROV1 ovarian
K-562 leukemia = system: K-562 leukemia
KM12 colon = system: KM12 colon
LOX IMVI melanoma = system: LOX IMVI melanoma
M14 melanoma = system: M14 melanoma
MALME-3M melanoma = system: MALME-3M melanoma
MCF7 breast = system: MCF7 breast
MDA-MB-231 breast = system: MDA-MB-231 breast
MDA-MB-435 = system: MDA-MB-435
MOLT-4 leukemia = system: MOLT-4 leukemia
NCI-H226 lung = system: NCI-H226 lung
NCI-H23 lung = system: NCI-H23 lung
NCI-H460 lung = system: NCI-H460 lung
NCI-H522 lung = system: NCI-H522 lung
NCI/ADR-RES ovarian = system: NCI/ADR-RES ovarian
OVCAR-3 ovarian = system: OVCAR-3 ovarian
OVCAR-4 ovarian = system: OVCAR-4 ovarian
OVCAR-5 ovarian = system: OVCAR-5 ovarian
OVCAR-8 ovarian = system: OVCAR-8 ovarian
PC-3 prostate = system: PC-3 prostate
RXF 393 renal = system: RXF 393 renal
SF-268 CNS = system: SF-268 CNS
SF-295 CNS = system: SF-295 CNS
SF-539 CNS = system: SF-539 CNS
SK-MEL-2 melanoma = system: SK-MEL-2 melanoma
SK-MEL-28 melanoma = system: SK-MEL-28 melanoma
SK-MEL-5 melanoma = system: SK-MEL-5 melanoma
SK-OV-3 ovarian = system: SK-OV-3 ovarian
SN12C renal = system: SN12C renal
SNB-19 CNS = system: SNB-19 CNS
SNB-75 CNS = system: SNB-75 CNS
SR leukemia = system: SR leukemia
SW-620 colon = system: SW-620 colon
T-47D breast = system: T-47D breast
TK-10 renal = system: TK-10 renal
U251 CNS = system: U251 CNS
UACC-257 melanoma = system: UACC-257 melanoma
UACC-62 melanoma = system: UACC-62 melanoma
UO-31 renal = system: UO-31 renal

## CCCSC1=NC2C(N(CC)C(=O)N2CC)N1/N=C/C=C/c1ccccc1[N+](=O)[O-] (centres undefined)
786-0 renal
  GI50: 4.61 µM
  TGI: > 100 µM
A498 renal
  GI50: 1.59 µM
  TGI: 6.35 µM
A549 NSCLC
  GI50: 4.25 µM
  TGI: > 100 µM
ACHN renal
  GI50: 3.98 µM
  TGI: > 100 µM
BT-549 breast
  GI50: 2.6 µM
  TGI: 8.5 µM
CAKI-1 renal
  GI50: 2.93 µM
  TGI: > 100 µM
CCRF-CEM leukemia
  GI50: 2.93 µM
  TGI: > 100 µM
COLO 205 colon
  GI50: 3.13 µM
  TGI: 56.5 µM
DU-145 prostate
  GI50: 3.51 µM
  TGI: > 100 µM
EKVX NSCLC
  GI50: 3.89 µM
  TGI: > 100 µM
HCC-2998 colon
  GI50: 2.57 µM
  TGI: 9.27 µM
HCT-116 colon
  GI50: 3.2 µM
  TGI: > 100 µM
HCT-15 colon
  GI50: 2.94 µM
  TGI: > 100 µM
HL-60(TB) leukemia
  GI50: 3.27 µM
  TGI: 12.1 µM
HOP-62 NSCLC
  GI50: 3.79 µM
  TGI: > 100 µM
HOP-92 NSCLC
  GI50: 1.27 µM
  TGI: 8.47 µM
HS 578T breast
  GI50: 2.39 µM
  TGI: > 100 µM
HT29 colon
  GI50: 3.16 µM
  TGI: > 100 µM
IGROV1 ovarian
  GI50: 4.06 µM
  TGI: > 100 µM
K-562 leukemia
  GI50: 2.31 µM
  TGI: > 100 µM
KM12 colon
  GI50: 3.55 µM
  TGI: > 100 µM
LOX IMVI melanoma
  GI50: 3.08 µM
  TGI: 20.7 µM
M14 melanoma
  GI50: 2.83 µM
  TGI: 20.8 µM
MALME-3M melanoma
  GI50: 4.74 µM
  TGI: > 100 µM
MCF7 breast
  GI50: 2.81 µM
  TGI: > 100 µM
MDA-MB-231 breast
  GI50: 2.35 µM
  TGI: 7.44 µM
MDA-MB-435
  GI50: 2.02 µM
  TGI: 7.24 µM
MOLT-4 leukemia
  GI50: 3.36 µM
  TGI: > 100 µM
NCI-H226 lung
  GI50: 3.32 µM
  TGI: > 100 µM
NCI-H23 lung
  GI50: 4.04 µM
  TGI: > 100 µM
NCI-H460 lung
  GI50: 3.45 µM
  TGI: > 100 µM
NCI-H522 lung
  GI50: 2.12 µM
  TGI: 41 µM
NCI/ADR-RES ovarian
  GI50: 2.5 µM
  TGI: 8.46 µM
OVCAR-3 ovarian
  GI50: 3.11 µM
  TGI: 14.9 µM
OVCAR-4 ovarian
  GI50: 6.72 µM
  TGI: > 100 µM
OVCAR-5 ovarian
  GI50: 5.65 µM
  TGI: > 100 µM
OVCAR-8 ovarian
  GI50: 3.76 µM
  TGI: > 100 µM
PC-3 prostate
  GI50: 3.33 µM
  TGI: > 100 µM
RXF 393 renal
  GI50: 1.8 µM
  TGI: 8.32 µM
SF-268 CNS
  GI50: 4.69 µM
  TGI: > 100 µM
SF-295 CNS
  GI50: 2.74 µM
  TGI: > 100 µM
SF-539 CNS
  GI50: 2.13 µM
  TGI: 5.8 µM
SK-MEL-2 melanoma
  GI50: 7.26 µM
  TGI: > 100 µM
SK-MEL-28 melanoma
  GI50: 6.96 µM
  TGI: > 100 µM
SK-MEL-5 melanoma
  GI50: 2.76 µM
  TGI: 10.3 µM
SK-OV-3 ovarian
  GI50: 6.07 µM
  TGI: > 100 µM
SN12C renal
  GI50: 3.84 µM
  TGI: > 100 µM
SNB-19 CNS
  GI50: 3.74 µM
  TGI: > 100 µM
SNB-75 CNS
  GI50: 2.26 µM
  TGI: 54.7 µM
SR leukemia
  GI50: 1.1 µM
  TGI: 5.53 µM
SW-620 colon
  GI50: 4.25 µM
  TGI: > 100 µM
T-47D breast
  GI50: 4.21 µM
  TGI: > 100 µM
TK-10 renal
  GI50: 10 µM
  TGI: > 100 µM
U251 CNS
  GI50: 3.42 µM
  TGI: > 100 µM
UACC-257 melanoma
  GI50: 11 µM
  TGI: > 100 µM
UACC-62 melanoma
  GI50: 2.81 µM
  TGI: > 100 µM
UO-31 renal
  GI50: 3.86 µM
  TGI: > 100 µM
